Laboratory results reported in BindingDB's records for doi:10.1021/jm300491y (San Francisco State University, 2012).

Test: Inhibition of UT-B in wild type CD1 mouse erythrocyte assessed as hemolysis after 10 mins

**Q.** For `CC(C)c1ccc(S(=O)(=O)c2nnn3c2nc(NCc2cccc4ccccc24)c2sccc23)cc1`, which IC50 is on record?
**A.** > 2.5 µM

**Q.** For `CCc1ccc(S(=O)(=O)c2nnn3c2nc(N2CCOCC2)c2sccc23)cc1`, which IC50 is on record?
**A.** 5.6 µM

**Q.** Which IC50 does the source give for `Cc1ccc(S(=O)(=O)c2nnn3c2nc(N2CCCCC2)c2sccc23)cc1C` here?
**A.** > 25 µM
